The source of these data is US11304929B2, “Tosylacetate based compounds and derivatives thereof as PHGDH inhibitors” (priority 2017, dated 2022).

Like-named read-outs stand apart in the source and are kept apart here.

One assay deals with PHGDH (Homo sapiens (Human), UniProt O43175). The assay is described as follows: 3-Phosphoglycerate Dehydrogenase (PHGDH) Fluorescence Intensity Assay, run at two NAD/3-PG ratios: PHGDH_HIGH_NAD/3-PG (250 μM NAD/500 μM 3-PG) and PHGDH_500_NAD/3-PG (500 μM NAD/500 μM 3-PG). In kind it is biochemical.
The subject of another assay is MDA-MB-468. Put plainly: 13C3 Serine Assay MDA-MB-468 (13C3 serine levels by LC/MS/MS). Format: cell-based.
[1] abbreviates: 250 μM NAD/500 μM 3-PG, read-out: IC50 (PHGDH_HIGH_NAD/3-PG).
Setting [2] is: Homo sapiens, MDA-MB-468 cells, 13C3 serine levels by LC/MS/MS, read-out: IC50 (13CSERINE).
The mark [3] stands for this setting: 500 μM NAD/500 μM 3-PG, read-out: IC50 (PHGDH_500_NAD/3-PG).

PHGDH, sequence (O43175 2-533 limits assumed): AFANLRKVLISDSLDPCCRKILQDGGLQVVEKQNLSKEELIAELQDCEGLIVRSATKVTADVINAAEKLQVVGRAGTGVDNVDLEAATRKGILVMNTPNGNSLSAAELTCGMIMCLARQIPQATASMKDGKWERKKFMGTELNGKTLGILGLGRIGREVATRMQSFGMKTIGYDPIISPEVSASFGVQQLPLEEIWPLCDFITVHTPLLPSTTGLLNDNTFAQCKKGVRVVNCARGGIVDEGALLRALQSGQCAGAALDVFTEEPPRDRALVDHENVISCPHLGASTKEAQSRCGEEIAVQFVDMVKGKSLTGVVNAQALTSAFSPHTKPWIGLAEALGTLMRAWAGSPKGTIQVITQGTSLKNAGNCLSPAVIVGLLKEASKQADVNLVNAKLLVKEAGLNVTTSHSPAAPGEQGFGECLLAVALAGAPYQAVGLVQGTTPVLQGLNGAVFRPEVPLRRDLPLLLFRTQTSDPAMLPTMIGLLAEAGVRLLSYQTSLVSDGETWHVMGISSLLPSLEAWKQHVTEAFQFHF
Method for MDA-MB-468: Cells are cultivated in Medium I in a 75 mL flask.
Day 1: 5000 cells in 180 μL Medium I/well were seeded into a 96-well plate. Plates were incubated at 37° C. in a 5% CO2 incubator overnight.
Day 2: 10 mM DMSO stock from test compounds were serially pre-diluted with Medium I (See dilution scheme: for the first well 20 μL DMSO stock are diluted with 180 μL Medium I. From this 1000 μM solution further seven 1:3 (1+2) dilution are prepared with Medium I). 20 μL of these pre-dilutions are transferred in duplicates to the 96-well plate of Day 1. After incubation at 37° C. in a CO2 incubator for 1 hour the medium was removed, 100 μL PBS (tempered to room temperature) added and subsequently removed again.
180 μL Medium II were then added per well and 20 μL of serial dilutions of test compounds in Medium II (as described before) were transferred per well as above. After 180 minutes incubation at 37° C. in a CO2 incubator the medium was again cautiously removed.
After the addition of 100 μL methanol: H2O (80:20, v:v, pre-cooled to −80° C.) the plates were sealed immediately and frozen at −80° C.
At day of measurement plates were thawn, centrifuged and the supernatant evaporated. The samples were resuspended in 100 μl water for tandem mass spectrometry.
^13C3 serine levels were analyzed with LC/MS/MS using Multiple Reaction Monitoring (MRM).
IC50 values were computed from these values using a 4 parametric logistic model.

For the molecule `COC(=O)CS(=O)(=O)c1ccc([C@@H](C)NC(=O)c2cc3c(Cl)c(Cl)c(C)cc3n2C)cc1` [Example 01-001, methyl 2-{4-[(1R)-1-[(4,5-dichloro-1,6-dimethyl-1H-indol-2-yl)formamido]ethyl]benzenesulfonyl}acetate], the results for the IC50 on PHGDH (setting [1]) and in the assay with MDA-MB-468 (setting [2]) were 441 nM and 7 nM, respectively.
Take `CCOC(=O)CS(=O)(=O)c1ccc([C@@H](CO)NC(=O)c2cc3c(Cl)c(Cl)c(C)cc3n2C)cc1` [Example 01-002, ethyl 2-{4-[(1S)-1-[(4,5-dichloro-1,6-dimethyl-1H-indol-2-yl)formamido]-2-hydroxyethyl]benzenesulfonyl}acetate]: the IC50 at PHGDH (setting [1]) was found to be 169 nM; at PHGDH (setting [3]), 258 nM; in the assay with MDA-MB-468 (Homo sapiens, MDA-MB-468, read-out: IC50 (13CSERINE)) it was 2.9 nM.
For `Cc1cc(Cl)c2cc(C(=O)N[C@H](C)c3ccc(S(=O)(=O)CC(=O)OC(C)C)cc3)n(C)c2c1` [Example 01-018, propan-2-yl 2-{4-[(1R)-1-[(4-chloro-1,6-dimethyl-1H-indol-2-yl)formamido]ethyl]benzenesulfonyl}acetate], in the assay with MDA-MB-468 (setting [2]), the IC50 came to 66.3 nM.
Still for that read-out and setting: next, `COC(=O)CS(=O)(=O)c1ccc([C@@H](C)NC(=O)c2cc3c(Cl)cc(C)cc3n2C)nc1` [Example 01-029, methyl 2-({6-[(1R)-1-[(4-chloro-1,6-dimethyl-1H-indol-2-yl)formamido]ethyl]pyridin-3-yl}sulfonyl)acetate]: 51.4 nM.
As to `Cc1cc2c(cc(C(=O)N[C@H](CO)c3ccc([S@+]([O-])CC(=O)OC(C)C)cc3)n2C)c(Cl)c1Cl` [Example 13-001, propan-2-yl 2-[(R)-4-[(1S)-1-[(4,5-dichloro-1,6-dimethyl-1H-indol-2-yl)formamido]-2-hydroxyethyl]benzenesulfinyl]acetate], the IC50 at PHGDH (setting [1]) came to 204 nM; on PHGDH (setting [3]), 305 nM.
Turning to `Cc1cc2c(cc(C(=O)N[C@H](CO)c3ccc([S@@+]([O-])CC(=O)OC(C)C)cc3)n2C)c(Cl)c1Cl` [Example 13-002, propan-2-yl 2-[(S)-4-[(1S)-1-[(4,5-dichloro-1,6-dimethyl-1H-indol-2-yl)formamido]-2-hydroxyethyl]benzenesulfinyl]acetate], the figures for the IC50 on PHGDH (setting [1]) and at PHGDH (setting [3]) were 819 nM and 1020 nM, respectively.
As for `Cc1cc2c(cc(C(=O)N[C@H](CO)c3ccc([S@@+]([O-])CC(=O)OC4CCOCC4)cc3)n2C)c(Cl)c1Cl` [Example 13-003, oxan-4-yl 2-[(S)-4-[(1S)-1-[(4,5-dichloro-1,6-dimethyl-1H-indol-2-yl)formamido]-2-hydroxyethyl]benzenesulfinyl]acetate], the IC50 on PHGDH (setting [3]) is 211 nM.
Take `Cc1cc2c(cc(C(=O)N[C@H](CO)c3ccc([S@@+]([O-])CC(=O)OC(C)C)cc3)n2C)c(F)c1F` [Example 13-004, propan-2-yl 2-[(S)-4-[(1S)-1-[(4,5-difluoro-1,6-dimethyl-1H-indol-2-yl)formamido]-2-hydroxyethyl]benzenesulfinyl]acetate]: at PHGDH (setting [3]), the IC50 is 690 nM.
Same read-out and setting: next, `Cc1cc2c(cc(C(=O)N[C@H](CO)c3ccc([S@+]([O-])CC(=O)OC4CCOCC4)cc3)n2C)c(Cl)c1Cl` [Example 13-005, oxan-4-yl 2-[(R)-4-[(1S)-1-[(4,5-dichloro-1,6-dimethyl-1H-indol-2-yl)formamido]-2-hydroxyethyl]benzenesulfinyl]acetate]: 191 nM; `Cc1cc2c(cc(C(=O)N[C@H](CO)c3ccc([S@+]([O-])CC(=O)OC(C)C)cc3)n2C)c(F)c1F` [Example 13-006, propan-2-yl 2-[(R)-4-[(1S)-1-[(4,5-difluoro-1,6-dimethyl-1H-indol-2-yl)formamido]-2-hydroxyethyl]benzenesulfinyl]acetate]: 2080 nM.
For `Cc1cc(Cl)c2cc(C(=O)N[C@H](C)c3ccc([S+]([O-])CC(=O)OC(C)C)cc3)n(C)c2c1` (stereo partly drawn) [Example 13-007, propan-2-yl 2-{4-[(1R)-1-[(4-chloro-1,6-dimethyl-1H-indol-2-yl)formamido]ethyl]benzenesulfinyl}acetate], the IC50 on PHGDH (setting [1]) came out at 2140 nM.
For the molecule `Cc1cc(Cl)c2cc(C(=O)N[C@H](CO)c3ccc([S+]([O-])CC(=O)OC(C)C)cc3)n(C)c2c1` (stereo partly drawn) [Example 13-008, propan-2-yl 2-{4-[(1S)-1-[(4-chloro-1,6-dimethyl-1H-indol-2-yl)formamido]-2-hydroxyethyl]benzenesulfinyl}acetate], the figures for the IC50 at PHGDH (setting [1]) and on PHGDH (setting [3]) were 695 nM and 1200 nM, respectively.
For `Cc1cc2c(cc(C(=O)N[C@H](CO)c3ccc([S+]([O-])CC(=O)OC(C)C)cc3)n2C)c(Cl)c1Cl` (stereo partly drawn) [Example 13-009, propan-2-yl 2-{4-[(1S)-1-[(4,5-dichloro-1,6-dimethyl-1H-indol-2-yl)formamido]-2-hydroxyethyl]benzenesulfinyl}acetate] the same measures were 428 nM and 797 nM.
For the molecule `Cc1cc2c(cc(C(=O)N[C@H](CO)c3ccc([S+]([O-])CC(=O)OC(C)C)cc3)n2C)c(F)c1F` (stereo partly drawn) [Example 13-010, propan-2-yl 2-{4-[(1S)-1-[(4,5-difluoro-1,6-dimethyl-1H-indol-2-yl)formamido]-2-hydroxyethyl]benzenesulfinyl}acetate], at PHGDH (setting [3]), the IC50 is 1060 nM.
Same read-out and setting: next, `Cc1cc2c(cc(C(=O)N[C@H](C)c3ccc([S+]([O-])CC(=O)OC(C)C)cc3)n2C)c(Cl)c1Cl` (stereo partly drawn) [Example 13-011, propan-2-yl 2-{4-[(1R)-1-[(4,5-dichloro-1,6-dimethyl-1H-indol-2-yl)formamido]ethyl]benzenesulfinyl}acetate]: 1740 nM.
Consider `C[C@@H](NC(=O)c1cc(-c2ccc(F)cc2)nn1C)c1ccc(S(=O)(=O)CC(=O)NOCCN2CCOCC2)cc1` [Example 15-001, 3-(4-fluorophenyl)-1-methyl-N-[(1R)-1-[4-({[2-(morpholin-4-yl)ethoxy]carbamoyl}methanesulfonyl)phenyl]ethyl]-1H-pyrazole-5-carboxamide], for which the IC50 with MDA-MB-468 (setting [2]) is 55400 nM.
Consider `C[C@@H](NC(=O)c1cc(-c2ccc(F)cc2)nn1C)c1ccc(S(=O)(=O)CC(=O)NOC2CCN(C)CC2)cc1` [Example 15-002, 3-(4-fluorophenyl)-1-methyl-N-[(1R)-1-[4-({[(1-methylpiperidin-4-yl)oxy]carbamoyl}methanesulfonyl)phenyl]ethyl]-1H-pyrazole-5-carboxamide], for which the IC50 in the assay with MDA-MB-468 (setting [2]) was determined as 85300 nM.
As for `Cc1cc(Cl)c2cc(C(=O)N[C@H](C)c3ccc(S(=O)(=O)CC(=O)CCC(=O)O)cc3)n(C)c2c1` [Example 15-003, 5-{4-[(1R)-1-[(4-chloro-1,6-dimethyl-1H-indol-2-yl)formamido]ethyl]benzenesulfonyl}-4-oxopentanoic acid], in the assay with MDA-MB-468 (setting [2]), the IC50 came to 9640 nM.
Regarding `CONC(=O)CS(=O)(=O)c1ccc([C@@H](C)NC(=O)c2cc(-c3ccc(F)cc3)nn2C)cc1` [Example 15-004, 3-(4-fluorophenyl)-N-[(1R)-1-{4-[(methoxycarbamoyl)methanesulfonyl]phenyl}ethyl]-1-methyl-1H-pyrazole-5-carboxamide], the IC50 in the assay on MDA-MB-468 (setting [2]) was 6270 nM.
With `CCOC(=O)CS(=O)(=O)c1ccc([C@@H](C)NC(=O)c2cc(-n3ccc4ccccc43)nn2C)cc1` [Example 15-005, ethyl 2-{4-[(1R)-1-{[3-(1H-indol-1-yl)-1-methyl-1H-pyrazol-5-yl]formamido}ethyl]benzenesulfonyl}acetate], the IC50 with MDA-MB-468 (setting [2]) turned out to be 309 nM.
Regarding `CCOC(=O)CS(=O)(=O)c1ccc([C@@H](C)NC(=O)c2cc(-n3ncc4ccccc43)nn2C)cc1` [Example 15-006, ethyl 2-{4-[(1R)-1-{[3-(1H-indazol-1-yI)-1-methyl-1H-pyrazol-5-yl]formamido}ethyl]benzenesulfonyl}acetate], the IC50 in the assay on MDA-MB-468 (MDA-MB-468 cells, 13C3 serine levels by LC/MS/MS, read-out: IC50 (13CSERINE)) worked out at 73.3 nM.
In the case of `Cc1cc(Cl)c2cc(C(=O)N[C@H](C)c3ccc(S(=O)(=O)C(C)(C)C(N)=O)cc3)n(C)c2c1` [Example 15-007, N-[(1R)-1-[4-(1-carbamoyl-1-methylethanesulfonyl)phenyl]ethyl]-4-chloro-1,6-dimethyl-1H-indole-2-carboxamide], the IC50 with MDA-MB-468 (setting [2]) is 3220 nM.
Consider `Cc1cc(Cl)c2cc(C(=O)N[C@H](C)c3ccc(S(=O)(=O)CC(=O)CS(=O)(=O)c4ccc([C@@H](C)NC(=O)c5cc6c(Cl)cc(C)cc6n5C)cc4)cc3)n(C)c2c1` [Example 15-008, 4-chloro-N-[(1R)-1-[4-(3-{4-[(1R)-1-[(4-chloro-1,6-dimethyl-1H-indol-2-yl)formamido]ethyl]benzenesulfonyl}-2-oxopropanesulfonyl)phenyl]ethyl]-1,6-dimethyl-1H-indole-2-carboxamide], for which the IC50 in the assay with MDA-MB-468 (setting [2]) came to 11.9 nM.
On the same count and under the same terms, for `Cc1cc(Cl)c2cc(C(=O)N[C@H](C)c3ccc(S(=O)(=O)CC(=O)N(C)C)cc3)n(C)c2c1` [Example 15-009, 4-chloro-N-[(1R)-1-{4-[(dimethylcarbamoyl)methanesulfonyl]phenyl}ethyl]-1,6-dimethyl-1H-indole-2-carboxamide] the value was 3390 nM; for `CCOC(=O)CS(=O)(=O)c1ccc([C@@H](C)NC(=O)c2cc(-c3ccccc3)n(C)n2)cc1` [Example 15-010, ethyl 2-{4-[(1R)-1-[(1-methyl-5-phenyl-1H-pyrazol-3-yl)formamido]ethyl]benzenesulfonyl}acetate], 1300 nM; for `Cc1cc(Cl)c2cc(C(=O)N[C@H](C)c3ccc(S(=O)(=O)CC(=O)OCCOC(=O)CS(=O)(=O)c4ccc([C@@H](C)NC(=O)c5cc6c(Cl)cc(C)cc6n5C)cc4)cc3)n(C)c2c1` [Example 15-011, 2-[(2-{4-[(1R)-1-[(4-chloro-1,6-dimethyl-1H-indol-2-yl)formamido]ethyl]benzenesulfonyl}acetyl)oxy]ethyl 2-{4-[(1R)-1-[(4-chloro-1,6-dimethyl-1H-indol-2-yl)formamido]ethyl]benzenesulfonyl}acetate], 249 nM.
